Measurements taken from PubChem BioAssay (NCI).
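Five compound concentrations were applied to cells in 96-well plates for 48 hours; endpoints were derived by simple linear interpolation of the resulting dose-response curve. At the GI50, growth is halved. TGI marks complete inhibition of growth.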

Assays:
Assay in all cases: NCI tumour cell line growth inhibition, 48 h
BT-549 breast = test system: BT-549 breast
PC-3 prostate = test system: PC-3 prostate
MDA-MB-435 = test system: MDA-MB-435
RXF 393 renal = test system: RXF 393 renal
A498 renal = test system: A498 renal
MDA-MB-231 breast = test system: MDA-MB-231 breast
MALME-3M melanoma = test system: MALME-3M melanoma
DU-145 prostate = test system: DU-145 prostate
SK-MEL-28 melanoma = test system: SK-MEL-28 melanoma
NCI-H460 lung = test system: NCI-H460 lung

SMILES | GI50 (BT-549 breast) [µM] | TGI (BT-549 breast) [µM] | GI50 (PC-3 prostate) [µM] | TGI (PC-3 prostate) [µM] | GI50 (MDA-MB-435) [µM] | TGI (MDA-MB-435) [µM] | GI50 (RXF 393 renal) [µM] | TGI (RXF 393 renal) [µM] | GI50 (A498 renal) [µM] | TGI (A498 renal) [µM] | GI50 (MDA-MB-231 breast) [µM] | TGI (MDA-MB-231 breast) [µM] | GI50 (MALME-3M melanoma) [µM] | TGI (MALME-3M melanoma) [µM] | GI50 (DU-145 prostate) [µM] | TGI (DU-145 prostate) [µM] | GI50 (SK-MEL-28 melanoma) [µM] | TGI (SK-MEL-28 melanoma) [µM] | GI50 (NCI-H460 lung) [µM] | TGI (NCI-H460 lung) [µM]
Cc1ccc(Cc2cnc(NC(=O)/C=C/c3cccc(C)c3)s2)cc1 | 0.256 | > 27.4 | 0.154 | > 100 | 0.0275 | 0.104 | 0.106 | 0.671 | 0.277 | 3.14 | 0.397 | 5.08 | 0.19 | 51.9 | 0.395 | > 66.3 | 1.35 | > 100 | 0.064 | 11.8
CS(=O)(=O)CCNCc1ccc(-c2ccc3ncnc(Nc4ccc(OCc5ccccc5)c(Br)c4)c3c2)o1 | 8.89 | > 25 | 9.28 | > 25 | 6.09 | 15.8 | 3.71 | 8.19 | 4.35 | 16.3 | 4.85 | 9.87 | 5.37 | 10.4 | 12.6 | > 25 | 4.5 | 9.08 | 7.87 | > 25
Cc1nc2sc(C(=O)Nc3cccc4ccccc34)c(N)c2cc1C(O)c1ccccc1 (stereo not given) | 0.144 | 3.63 | 0.118 | > 38 | 0.0205 | 0.0469 | 0.0307 | 24.7 | 0.0202 | 0.0636 | 0.15 | 5.36 | 0.0558 | 21.2 | 0.0804 | 6.67 | 1.14 | 24.2 | 0.0381 | 0.449
Cc1ccc2c(-c3ccnc(Nc4ccccc4)n3)c(-c3ccc(F)cc3)nn2n1 | 10.7 | > 25 | 9.97 | > 25 | 6.83 | > 25 | 3.77 | > 18.7 | 4.78 | 21.5 | 8.25 | > 25 | 13.9 | > 25 | 7.59 | > 25 | 12.2 | > 25 | 5.24 | 15.1
C[C@]12CC[C@@H]3c4cc(-c5ccc(F)cc5)c(O)cc4CC[C@H]3[C@@H]1CC[C@@H]2O | 6.51 | 23.3 | 4.63 | 21.8 | 11.8 | 28.6 | 2.66 | 5.9 | 3.39 | 12.2 | 7.86 | 23.9 | 10.1 | 22 | 12.5 | 25 | 14.2 | 28 | 4.26 | 19.6
CC(=O)N1C/C(=C/c2ccc(Cl)cc2)C(=O)/C(=C/c2ccc(Cl)cc2)C1 | 0.435 | 1.32 | 0.47 | 2.28 | 0.43 | 1.82 | 0.546 | 1.61 | 1.41 | 2.89 | 1.15 | 3.23 | 1.94 | 4.14 | 1.13 | 2.62 | 1.54 | 3.2 | 1.32 | 4.22
COc1cc(-c2ccc(-c3ccc(C(=N)N)nc3)s2)cc(OC)c1OC | 1.67 | 3.49 | 3.11 | 12.7 | 1.62 | 3.05 | 2.19 | 4.83 | 4.9 | 18.2 | 1.85 | 4.2 | 1.53 | 3 | 3.45 | 12.1 | 1.62 | 3.18 | 2.1 | 4.39
N#Cc1ccc2c(c1)C(=O)c1c-2n(CCCCl)c(=O)c2cc([N+](=O)[O-])ccc12 | 2.28 | 23.5 | 19.1 | > 100 | > 100 | > 100 | 11.9 | 37.7 | 22.8 | 55.3 | 77.5 | > 100 | 24 | > 100 | 2.74 | 23.9 | 41.1 | > 100 | 0.395 | > 100
CNC(=O)c1ccc(N2C(=S)N(c3ccc(C#N)c(C(F)(F)F)c3)C(=O)C2(C)C)cc1F | 22.3 | > 73.4 | 30.3 | > 100 | 41.9 | > 79.3 | 35.8 | > 66 | > 35.3 | > 71 | > 38.6 | > 60.6 | 20.9 | > 82.1 | 53.9 | > 100 | > 51.8 | > 96.1 | 28.2 | > 74.3
COc1ccc(-c2cc(-c3ccc(Cl)cc3)nc(SCCCC(=O)NO)n2)cc1 | 2.46 | 28.6 | 0.874 | 3.61 | 1.21 | 3.19 | 0.359 | 1.52 | 1.38 | 3.28 | 1.22 | 5.3 | 1.86 | 7.01 | 0.826 | 6 | 1.69 | 5.47 | 0.495 | 3.9
